Measured values taken from patent publication US20250205195A1, “BENZYLOXY-BENZYLAMINYL AMINO ACID DERIVATIVE FOR ADJUSTING TSLP/TSLPR SIGNAL TRANSMISSION” (AMTIXBIO CO., LTD., priority 2021, published 2025).

Columns and labels:
[1] = tested on: p-STAT5; test: TSLP-induced p-STAT5 in bone marrow-derived dendritic cells (BMDCs), Western blot; assay type: cell-based, mouse
Experimental: C57BL/6J mice (JA BIO, DBL-0011, male, 6-12 weeks old) were euthanized, and femurs and tibias were separated after cervical dislocation and then were stored in PBS (HyClone, Cat No. SH30028.02). After removing tissues as much as possible from femurs and tibias, both ends of the bones were cut vertically, and bone marrow was quickly collected with a 5 mL syringe (Korea Vaccine, 5 cc syringe 22 g). After centrifugation at 1800 rpm for 3 minutes, the supernatant was discarded, 10 mL PBS was added to resuspend the cells, and the mixture was filtered through a 100 µm cell strainer. […]
The obtained BMDCs were pre-treated with compound 27, Jak1 inhibitor (Filgotinib, Selleck, Cat No. JS7605), or Jak2 inhibitor (SD-1029, Sigma, Cat No. 573098) 30 minutes or 1 hour prior to treatment. […] After quantifying the protein using the BCA protein assay kit (Thermo, Cat No. 23225), 5×SDS-PAGE loading buffer (Biosesang, Cat No. SF2002-110-00) was added, boiled for 5 minutes at 103° C., and stored at −20° C. […]
BR1706516)] for 2 hours at room temperature. After washing with TBS-T, the membrane was incubated with ECL solution (Thermo, Cat No. 32209), and protein bands were detected using the iBright imaging system (Invitrogen, Model No. FL1500). Each band intensity was measured using ImageJ software (version 1.38; National Institutes of Health), and the pSTAT5/STAT ratio was calculated. […]

[2] = tested on: DNFB-induced atopic dermatitis mice; test: DNFB-induced atopic dermatitis mouse model, itch scratching test; assay type: in vivo, ICR mice; details: 1˜10 mg/kg, ip, po or topical, daily for one week, 30 min recording, vs control group
Experimental: ICR mice (Supplier: Koatech, Gyeonggi, South Korea, Male, 9 weeks old) were used. After acclimatization to the environment for one week, the mice were divided into treatment and control groups, and then hair was removed from the area (dorsal area) where the drug was applied on day 0, 0.5% DNFB (50 μL) diluted in 99% acetone, was applied to the dorsal area. Subsequently, on days 5, 8, 10 and 14, additional applications of 0.2% DNFB (20 μL) were applied to induce atopic dermatitis. After 7 days of DNFB treatment, once skin lesions were confirmed in all mice, compound 27 of the present invention was administered daily for one week via intraperitoneal (ip), oral (po), or topical (dermal) routes.
For the groups treated with the compound 27 of the present invention (1˜10 mg/kg) and the control group, mice were separated on days 5, 8, 11 and 15, acclimatized for 1 hour, and their scratching behavior patterns were recorded and analyzed for 30 minutes.

[3] = tested on: HDM-induced atopic dermatitis mice; test: House dust mite (HDM) atopic dermatitis mouse model, dermatitis score; assay type: in vivo, Nc/Nga mice; details: topical or oral, 10 days after administration, vs control group
Text: Nc/Nga mice (Supplier: Central Animal Laboratory, South Korea, Male, 8 weeks old) were used, with 8 mice per group. The experimental animals were allowed free access to Purina Nestle feed (Switzerland) and water. The mice were shaved using clippers and depilatory cream one day (day 0) before applying Df cream (Dermatophagoides farina cream, Biostir AD, Biostir Incorporation). Df cream was applied to the mouse dorsal area twice a week for 5 weeks to induce atopic dermatitis. After confirming lesions in all mice, compound 27 of the present invention was administered topically or orally for 3 weeks (21 days) from 2 weeks after Df cream application. For topical administration, compound 27 was mixed with 100% ethanol to achieve concentrations of 0.3%, 1%, or 3%, and applied once daily. It was applied to both ears (25 μL each) and the dorsal area (70 μL). 100% ethanol was used as the topical vehicle. For oral administration, compound 27 was administered at doses of 25 mpk (once daily, QD), 50 mpk (QD), or 10 mpk (twice daily, BID). […]
Skin indicators were recorded through visual observation once a week (on days 0, 7, 14, 21, 28, and 36). […] Each item was scored as follows: no symptoms (0 points), mild symptoms (1 point), moderate symptoms (2 points), and severe symptoms (3 points). The total score was calculated by summing up scores for all items.

CCC(NC)C(=O)NCc1ccc(OCc2ccc(C(F)(F)F)cc2)cc1 (racemic) [Compound 27, (R)/(S)-2-(methylamino)-N-(4-((4-trifluoromethyl)benzyl)oxy)benzyl)butanamide]
reduction in p-STAT5 ([1]; 2 pM, compared to the TSLP-treated group): 51%
p-STAT5 (pSTAT5/STAT ratio) ([1]; BMDCs, TSLP treatment): significantly reduced
scratching frequency [2]: significantly decreased
improvement of skin lesions (Modified SCORAD score) [3]: superior effect
